Literature values, collected in US6641797B2, “Perfluoroalkyl-containing complexes with sugar radicals, process for their production and their use” (Schering Aktiengesellschaft, priority 2000, dated 2003).
Values joined by “and” are separate entries in the source; they are usually repeats but may differ in a detail not shown here. Equal entries are not always repeated.

Tests used:
[1] = 39° C., 0.47 T; cited from earlier work
[2] = 39° C., 0.47 T; cited from earlier work; remark: listed apart in the source
[3] = in vivo; cited from earlier work
[4] = system: necrotic portion of a tumor; settings: in vivo; cited from earlier work
[5] = system: infarcted tissue; settings: cited from earlier work

Row | Compound | T^1-Relaxivity in Water [1] | T^1-Relaxivity in Plasma [2] | accumulation in the necrotic portion of a tumor [4] | also measured
1 | CNC[C@H](O)[C@@H](O)[C@H](O)[C@H](O)CO.O=C([O-])CN1CCN(CC(=O)[O-])CCN(CC(=O)O)CCN(CC(=O)[O-])CC1.[Gd+3] [DOTAREM^(R)] | 3.5 L/mmol/s | 4.3 L/mmol/s |  | 
2 | CNC[C@H](O)[C@@H](O)[C@H](O)[C@H](O)CO.CNC[C@H](O)[C@@H](O)[C@H](O)[C@H](O)CO.O=C([O-])CN(CCN(CC(=O)[O-])CC(=O)O)CCN(CC(=O)[O-])CC(=O)O.[Gd+3] [MAGNEVIST^(R), Gd-DTPA] | 3.8 L/mmol/s | 4.8 L/mmol/s |  | 
3 | O=S(=O)([O-])c1ccc(-c2c3nc(c(-c4ccc(S(=O)(=O)[O-])cc4)c4ccc([n-]4)c(-c4ccc(S(=O)(=O)[O-])cc4)c4nc(c(-c5ccc(S(=O)(=O)[O-])cc5)c5ccc2[n-]5)C=C4)C=C3)cc1.[Mn+3] [Mn-TPPS, manganese-5,10,15,20-tetrakis(4-sulfonatophenyl)-porphyrin] |  |  | selectively accumulates in the necrotic portion of a tumor | LD50 [3]: approximately 0.5 mmol/kg
4 | CNC(=O)CN(CCN(CCN(CC(=O)[O-])CC(=O)NC)CC(=O)[O-])CC(=O)[O-].[Gd+3] [OMNISCAN^(R)] | 3.8 L/mmol/s | 4.4 L/mmol/s |  | 
5 | C[n+]1ccc(-c2c3nc(c(-c4cc[n+](C)cc4)c4ccc([n-]4)c(-c4cc[n+](C)cc4)c4nc(c(-c5cc[n+](C)cc5)c5ccc2[n-]5)C=C4)C=C3)cc1.[111In+3] [TMPyP, ^111In-5,10,15,20-tetrakis-(4-N-methyl-pyridinium)-porphyrin] |  |  | does not accumulate in the necrotic portion | 
6 | gadolinium-mesoporphyrin [Gd-MP] |  |  |  | ratio of the signal intensities in MRI, infarcted in comparison to healthy tissue ([5]; kidney and myocardium): 2.10 and 2.19; metal content of infarcted tissue versus non-infarcted, myocardium ([5]; myocardium (Example 1 of WO 95/31219)): nine times as large
